Results: patent publication US12291518B2, “Thyroid hormone receptor agonists and use thereof” (Eccogene Inc., priority 2020, dated 2025)

Tests used:
THR beta-LBD = molecular target: T1, THR beta-LBD (Homo sapiens, UniProt P10828); assay: THR-β Coactivator Peptide Recruitment Assay (LanthaScreen TR-FRET); type: biochemical; details: TR-FRET coactivator recruitment, THR beta-LBD 0.5 nM; for EC50: read-out: THRβ EC50
T1 construct: THR beta-LBD (the final concentration is 0.5 nM) was added to the 384-well assay plate; purchased Invitrogen PV4686
T1 sequence (P10828 217-461 limits assumed): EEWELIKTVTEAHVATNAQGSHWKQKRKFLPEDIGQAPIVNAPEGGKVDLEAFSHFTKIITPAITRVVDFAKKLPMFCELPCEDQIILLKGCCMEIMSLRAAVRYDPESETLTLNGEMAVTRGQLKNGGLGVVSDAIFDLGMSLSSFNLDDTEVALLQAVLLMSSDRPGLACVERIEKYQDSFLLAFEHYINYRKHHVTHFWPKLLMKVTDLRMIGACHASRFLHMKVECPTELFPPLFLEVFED
Summary of the method: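 Agonist-driven coactivator recruitment read as a 520/495 nm TR-FRET emission ratio after 2 h at room temperature. Final concentrations: THR beta-LBD 0.5 nM, fluorescein-SRC2-2 peptide 0.1 nM, terbium anti-GST antibody 2 nM. EC50 from four-parameter dose-response fitting.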

THR alpha-LBD = molecular target: T2, THR alpha-LBD (Homo sapiens, UniProt P10827); assay: THR-α Coactivator Peptide Recruitment Assay (LanthaScreen TR-FRET); type: biochemical; details: TR-FRET coactivator recruitment, THR alpha-LBD 0.25 nM; for EC50: read-out: THRα EC50
T2 construct: except that THR alpha-LBD of a final concentration 0.25 nM was used; purchased Invitrogen PV4687
T2 sequence (P10827 163-410 isoform P10827-2 limits assumed, other chains not shown): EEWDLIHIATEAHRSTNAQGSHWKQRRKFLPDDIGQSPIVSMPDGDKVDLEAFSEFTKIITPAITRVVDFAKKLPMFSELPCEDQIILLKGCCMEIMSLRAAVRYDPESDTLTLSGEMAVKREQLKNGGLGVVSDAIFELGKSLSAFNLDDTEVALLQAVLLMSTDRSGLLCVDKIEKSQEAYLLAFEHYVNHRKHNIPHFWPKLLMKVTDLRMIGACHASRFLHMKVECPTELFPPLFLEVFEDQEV
Summary of the method: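 TR-FRET coactivator recruitment with THR alpha-LBD at 0.25 nM final, Fluorescein-SRC2-2 peptide 0.1 nM and Tb-labeled anti-GST antibody 2 nM; 2 h incubation at room temperature. 520/495 nm emission ratio fitted to a four-parameter sigmoidal curve to give EC50.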

Row | SMILES | THRβ Emax (THR beta-LBD) | EC50 (THR beta-LBD) | THRα Emax (THR alpha-LBD) | EC50 (THR alpha-LBD)
1 | O=c1[nH]c(=O)n(-c2cc(Cl)c(Oc3ccc(O)c(S(=O)(=O)NC4CS(=O)(=O)C4)c3)c(Cl)c2)nc1C(F)F [Compound 83, 5-(2,6-dichloro-4-(6-(difluoromethyl)-3,5-dioxo-4,5-dihydro-1,2,4-triazin-2(3H)-yl)phenoxy)-N-(1,1-dioxidothietan-3-yl)-2-hydroxybenzenesulfonamide] | A (90~110) | < 0.002 µM | A (85~110) | 0.002 to 0.2 µM
2 | O=C(NCC1(NS(=O)(=O)c2cc(Oc3c(Cl)cc(-n4nc(C(F)F)c(=O)[nH]c4=O)cc3Cl)ccc2O)CC1)C1CC1 [Compound 84, N-[[1-[[5-[2,6-dichloro-4-[6-(difluoromethyl)-3,5-dioxo-1,2,4-triazin-2-yl]phenoxy]-2-hydroxy-phenyl]sulfonylamino]cyclopropyl]methyl]cyclopropane carboxamide] | A (90~110) | < 0.002 µM | A (85~110) | 0.002 to 0.2 µM
3 | O=C(NC12CC(NS(=O)(=O)c3cc(Oc4c(Cl)cc(-n5nc(C(F)F)c(=O)[nH]c5=O)cc4Cl)ccc3O)(C1)C2)C1CC1 [Compound 85, N-(3-((5-(2,6-dichloro-4-(6-(difluoromethyl)-3,5-dioxo-4,5-dihydro-1,2,4-triazin-2(3H)-yl)phenoxy)-2-hydroxyphenyl)sulfonamido)bicyclo[1.1.1]pentan-1-yl)cyclopropanecarboxamide] | C (<75) | > 0.1 µM | C (<40) | > 1 µM
4 | O=C(N[C@H]1C[C@@H](NS(=O)(=O)c2cc(Oc3c(Cl)cc(-n4nc(C(F)F)c(=O)[nH]c4=O)cc3Cl)ccc2O)C1)C1CC1 [Compound 86, N-((1s,3s)-3-((5-(2,6-dichloro-4-(6-(difluoromethyl)-3,5-dioxo-4,5-dihydro-1,2,4-triazin-2(3H)-yl)phenoxy)-2-hydroxyphenyl)sulfonamido)cyclobutyl) cyclopropanecarboxamide] | C (<75) | 0.002 to 0.02 µM | C (<40) | 0.2 to 1 µM
5 | O=C(NCC(F)F)C1(NS(=O)(=O)c2cc(Oc3c(Cl)cc(-n4nc(C(F)F)c(=O)[nH]c4=O)cc3Cl)ccc2O)CC1 [Compound 87, 1-[[5-[2,6-dichloro-4-[6-(difluoromethyl)-3,5-dioxo-1,2,4-triazin-2-yl]phenoxy]-2-hydroxy-phenyl]sulfonylamino]-N-(2,2-difluoroethyl) cyclopropanecarboxamide] | B (75~90) | < 0.002 µM | B (40~85) | 0.2 to 1 µM
6 | O=C(CNS(=O)(=O)c1cc(Oc2c(Cl)cc(-n3nc(C(F)F)c(=O)[nH]c3=O)cc2Cl)ccc1O)NCC(F)F [Compound 88, 2-((5-(2,6-dichloro-4-(6-(difluoromethyl)-3,5-dioxo-4,5-dihydro-1,2,4-triazin-2(3H)-yl)phenoxy)-2-hydroxyphenyl)sulfonamido)-N-(2,2-difluoroethyl)acetamide] | B (75~90) | 0.02 to 0.1 µM | B (40~85) | 0.2 to 1 µM
7 | O=C(NC1CCC1)C1(NS(=O)(=O)c2cc(Oc3c(Cl)cc(-n4nc(C(F)F)c(=O)[nH]c4=O)cc3Cl)ccc2O)CC1 [Compound 89, N-cyclobutyl-1-((5-(2,6-dichloro-4-(6-(difluoromethyl)-3,5-dioxo-4,5-dihydro-1,2,4-triazin-2(3H)-yl)phenoxy)-2-hydroxyphenyl)sulfonamido)cyclopropane-1-carboxamide] | B (75~90) | < 0.002 µM | A (85~110) | 0.002 to 0.2 µM
8 | O=C(NC1CCCC1)C1(NS(=O)(=O)c2cc(Oc3c(Cl)cc(-n4nc(C(F)F)c(=O)[nH]c4=O)cc3Cl)ccc2O)CC1 [Compound 90, N-cyclopentyl-1-((5-(2,6-dichloro-4-(6-(difluoromethyl)-3,5-dioxo-4,5-dihydro-1,2,4-triazin-2(3H)-yl)phenoxy)-2-hydroxyphenyl)sulfonamido)cyclopropane-1-carboxamide] | B (75~90) | < 0.002 µM | A (85~110) | 0.002 to 0.2 µM
9 | O=C(N1CCCC1)C1(NS(=O)(=O)c2cc(Oc3c(Cl)cc(-n4nc(C(F)F)c(=O)[nH]c4=O)cc3Cl)ccc2O)CC1 [Compound 91, 5-(2,6-dichloro-4-(6-(difluoromethyl)-3,5-dioxo-4,5-dihydro-1,2,4-triazin-2(3H)-yl)phenoxy)-2-hydroxy-N-(1-(pyrrolidine-1-carbonyl)cyclopropyl)benzenesulfonamide] | A (90~110) | 0.002 to 0.02 µM | B (40~85) | 0.2 to 1 µM
10 | O=C(NC1CC1)C1(NS(=O)(=O)c2cc(Oc3c(Cl)cc(-n4nc(C(F)F)c(=O)[nH]c4=O)cc3Cl)ccc2O)CCC1 [Compound 92, N-cyclopropyl-1-((5-(2,6-dichloro-4-(6-(difluoromethyl)-3,5-dioxo-4,5-dihydro-1,2,4-triazin-2(3H)-yl)phenoxy)-2-hydroxyphenyl)sulfonamido)cyclobutane-1-carboxamide] | B (75~90) | 0.002 to 0.02 µM | B (40~85) | 0.2 to 1 µM
11 | O=C(NC1CC1)C1(NS(=O)(=O)c2cc(Oc3c(Cl)cc(-n4nc(C(F)(F)F)c(=O)[nH]c4=O)cc3Cl)ccc2O)CC1 [Compound 93, N-cyclopropyl-1-((5-(2,6-dichloro-4-(3,5-dioxo-6-(trifluoromethyl)-4,5-dihydro-1,2,4-triazin-2(3H)-yl)phenoxy)-2-hydroxyphenyl)sulfonamido)cyclopropane-1-carboxamide] | B (75~90) | 0.02 to 0.1 µM | C (<40) | > 1 µM
12 | CS(=O)(=O)CC1(NS(=O)(=O)c2cc(Oc3c(Cl)cc(-n4nc(C(F)F)c(=O)[nH]c4=O)cc3Cl)ccc2O)CC1 [Compound 94, 5-[2,6-dichloro-4-[6-(difluoromethyl)-3,5-dioxo-1,2,4-triazin-2-yl]phenoxy]-2-hydroxy-N-[1-(methylsulfonylmethyl)cyclopropyl] benzene sulfonamide] | B (75~90) | 0.002 to 0.02 µM | B (40~85) | 0.2 to 1 µM
13 | CS(=O)(=O)c1cc(Oc2c(Cl)cc(-n3nc(C(F)F)c(=O)[nH]c3=O)cc2Cl)ccc1O [Compound 95] | A (90~110) | < 0.002 µM | A (85~110) | < 0.002 µM
14 | O=c1[nH]c(=O)n(-c2cc(Cl)c(Oc3ccc(O)c(S(=O)(=O)NC4C[S+]([O-])C4)c3)c(Cl)c2)nc1C(F)F (centres unmarked) [Compound 96, 5-[2,6-dichloro-4-[6-(difluoromethyl)-3,5-dioxo-1,2,4-triazin-2-yl]phenoxy]-2-hydroxy-N-(1-oxothietan-3-yl) benzenesulfonamide] | A (90~110) | 0.02 to 0.1 µM | A (85~110) | 0.2 to 1 µM
15 | O=c1[nH]c(=O)n(-c2cc(Cl)c(Cc3ccc(O)c(S(=O)(=O)N[C@H]4C[C@H](O)C4)c3)c(Cl)c2)nc1C(F)F [Compound 97, 5-[[2,6-dichloro-4-[6-(difluoromethyl)-3,5-dioxo-1,2,4-triazin-2-yl]phenyl]methyl]-2-hydroxy-N-(3-hydroxycyclobutyl)benzenesulfonamide] | A (90~110) | < 0.002 µM | A (85~110) | 0.002 to 0.2 µM
16 | O=C(N[C@H]1CCOC1)c1cc(Oc2c(Cl)cc(-n3nc(C(F)F)c(=O)[nH]c3=O)cc2Cl)ccc1O [Compound 98, (S)-5-(2,6-dichloro-4-(6-(difluoromethyl)-3,5-dioxo-4,5-dihydro-1,2,4-triazin-2 (3H)-yl)phenoxy)-2-hydroxy-N-(tetrahydrofuran-3-yl) benzamide] | B (75~90) | 0.002 to 0.02 µM | B (40~85) | 0.002 to 0.2 µM
17 | CN([C@H]1C[C@H](O)C1)S(=O)(=O)c1cc(Oc2c(Cl)cc(-n3nc(C(F)F)c(=O)[nH]c3=O)cc2Cl)ccc1O [Compound 99] | B (75~90) | 0.002 to 0.02 µM | A (85~110) | 0.002 to 0.2 µM
18 | O=c1[nH]c(=O)n(-c2cc(Cl)c(Oc3ccc(O)c(S(=O)(=O)[C@H]4C[C@@H](O)C4)c3)c(Cl)c2)nc1C(F)F [Compound 100, 2-(3,5-dichloro-4-(4-hydroxy-3-(((1s,3s)-3-hydroxycyclobutyl)sulfonyl)phenoxy)phenyl)-6-(difluoromethyl)-1,2,4-triazine-3,5(2H,4H)-dione] | A (90~110) | < 0.002 µM | A (85~110) | 0.002 to 0.2 µM
19 | O=C(NCC1(NS(=O)(=O)c2cc(Oc3c(Cl)cc(-n4nc(C(F)F)c(=O)[nH]c4=O)cc3Cl)ncc2O)CC1)C1CC1 [Compound 101] | B (75~90) | 0.002 to 0.02 µM | B (40~85) | 0.2 to 1 µM
20 | CNS(=O)(=O)c1cc(Oc2c(Cl)cc(-n3nc(C#N)c(=O)[nH]c3=O)cc2Cl)ncc1O [Compound 102, 2-(2,6-dichloro-4-(6-cyano-3,5-dioxo-4,5-dihydro-1,2,4-triazin-2(3H)-yl)phenoxy)-5-hydroxy-N-methylpyridine-4-sulfonamide] | B (75~90) | 0.002 to 0.02 µM | A (85~110) | 0.2 to 1 µM
